Values of other authors as cited in patent US20040121407A1, “Regulation of the growth hormone/IGF-1 axis” (ELIXIR PHARMACEUTICALS, INC., priority 2002, published 2004).

Legend:
human SST2 = human SST2 (Homo sapiens, UniProt P30874)
IGF-1 levels = conditions: administered subcutaneously

Sequence of human SST2 (P30874 whole entry): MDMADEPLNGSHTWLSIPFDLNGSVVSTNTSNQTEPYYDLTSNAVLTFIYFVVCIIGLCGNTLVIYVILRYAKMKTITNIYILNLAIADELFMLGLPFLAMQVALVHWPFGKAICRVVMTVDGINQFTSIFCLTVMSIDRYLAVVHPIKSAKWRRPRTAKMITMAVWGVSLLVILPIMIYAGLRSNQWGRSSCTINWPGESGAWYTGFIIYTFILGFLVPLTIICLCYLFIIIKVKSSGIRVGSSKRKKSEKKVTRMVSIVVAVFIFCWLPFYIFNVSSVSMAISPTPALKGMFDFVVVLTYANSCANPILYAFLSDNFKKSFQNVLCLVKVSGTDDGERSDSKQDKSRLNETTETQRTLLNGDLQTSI

Compound: [N-acetyl-Tyr^1,D-Arg^2] GHRH^1-29NH2 [standard GHRH antagonist]
- human GH secretory response to exogenous GHRH (GH secretion; exogenous GHRH): inhibits
- spontaneous GH secretion (GH secretion; in vivo): lowers

Compound: CC(C)(C)OC(=O)[C@H](CCCCN)NC(=O)[C@@H](Cc1c[nH]c2ccccc12)NC(=O)N1CCC(n2c(=O)[nH]c3ccccc32)CC1 [L-054,522]
- selectivity (human SST2): highly selective

Compound: Pegvisomant: modified human GH in which nine amino acids have been replaced, with polyethylene glycol polymers; GH receptor antagonist
- IGF-1 levels (IGF-1 levels): dose dependent reduction
